From the NIST ThermoML archive (doi:10.1021/acs.jced.9b00511)
Numbers after ± are expanded uncertainties.

Experiment: wn = mass fraction of the nth substance listed
Details: Wilhelmy Plate

C[N+](C)(C)C.NCC(=O)[O-] [tetramethylammonium glycinate] + O
surface tension liquid-gas [mN/m]
Details	w1 = 0.025	w1 = 0.05	w1 = 0.075	w1 = 0.1	w1 = 0.15	w1 = 0.2	w1 = 0.4	w1 = 0.6	w1 = 0.8	w1 = 1
303.2 K	67.8 ± 1	65.4 ± 0.4	64.1 ± 0.8	62.7 ± 0.5	61.6 ± 0.5	60.2 ± 0.3	58.5 ± 0.3	57.6 ± 0.4	56.9 ± 0.4	56.2 ± 0.4
308.2 K	66.6 ± 1	64.3 ± 0.8	62.9 ± 0.6	61.6 ± 0.4	60.6 ± 0.4	59.5 ± 0.3	57.8 ± 0.3	56.9 ± 0.4	56.3 ± 0.4	55.6 ± 0.4
313.2 K	65.4 ± 0.9	63.3 ± 0.7	62.2 ± 0.6	60.6 ± 0.4	59.7 ± 0.4	58.8 ± 0.3	57.1 ± 0.3	56.2 ± 0.4	55.8 ± 0.4	55.1 ± 0.4
318.2 K	64.3 ± 0.7	62.5 ± 0.7	61 ± 0.6	59.8 ± 0.4	58.9 ± 0.4	58.1 ± 0.3	56.5 ± 0.3	55.8 ± 0.4	55.2 ± 0.4	54.5 ± 0.4
323.2 K	62.3 ± 0.6	61.1 ± 0.6	60 ± 0.4	58.7 ± 0.4	57.9 ± 0.4	57.1 ± 0.3	56 ± 0.3	55.4 ± 0.4	54.6 ± 0.4	53.9 ± 0.4

CCCCn1cc[n+](C)c1.NCCCC[C@H](N)C(=O)[O-] [1-butyl-3-methylimidazolium L-lysinate] + O
surface tension liquid-gas [mN/m]
Details	w1 = 0.025	w1 = 0.05	w1 = 0.075	w1 = 0.1	w1 = 0.15	w1 = 0.2	w1 = 0.4	w1 = 0.6	w1 = 0.8	w1 = 1
303.2 K	62.5 ± 1.1	59.9 ± 1.1	57.3 ± 0.8	55.1 ± 0.7	52.5 ± 0.6	50.1 ± 0.4	48.4 ± 0.4	47.1 ± 0.4	46.4 ± 0.5	45.9 ± 0.6
308.2 K	59.8 ± 0.9	57.7 ± 1	55.2 ± 0.9	53.3 ± 0.6	50.9 ± 0.5	49.1 ± 0.4	47.6 ± 0.4	46.4 ± 0.4	45.9 ± 0.5	45.5 ± 0.5
313.2 K	57.3 ± 0.7	55.5 ± 0.9	53.2 ± 0.9	51.5 ± 0.6	49.3 ± 0.5	48.1 ± 0.3	46.8 ± 0.4	45.7 ± 0.4	45.5 ± 0.5	45.1 ± 0.5
318.2 K	54.3 ± 0.8	52.5 ± 0.8	50.8 ± 0.7	49.4 ± 0.5	47.7 ± 0.4	46.8 ± 0.3	45.9 ± 0.4	45.3 ± 0.4	45 ± 0.5	44.7 ± 0.5
323.2 K	51.1 ± 0.7	49.6 ± 1.4	48.5 ± 0.4	47.3 ± 0.4	46.2 ± 0.4	45.5 ± 0.3	45.1 ± 0.4	44.9 ± 0.4	44.6 ± 0.5	44.2 ± 0.5
